SMILES strings stand for the structures.

Series [1] relates to frataxin (FXN) mRNA in GM15850 cells. Description: FXN mRNA by RT-PCR in GM15850 FRDA patient cell line. It is filed as cell-based, human. Particulars: 1 μM, 24 hours, normalized to TBP, relative to 0.1% DMSO. The text has this:
GM15850 and GM15851 cell lines (Epstein Barr virus transformed human B-lymphocytes) were obtained from the National Institute of General Medical Sciences (NIGMS) Human Genetic Cell Repository at the Coriell Institute for Medical Research, Camden, N.J. The GM15850 cell line was derived from a clinically affected Friedreich's ataxia patient ataxia displaying scoliosis, hypertrophic cardiomyopathy, and slurred speech, and characterized as homozygous for the GAA expansion in the frataxin gene with alleles of approximately 650 and 1030 repeats. The GM15851 cell line was derived from a clinically unaffected individual having two FRDA alleles in the normal range of GAA trinucleotide repeats (from about 6 to about 34 repeats). This clinically unaffected individual is a sibling of the clinically affected patient from which the GM15850 cell line was derived.
Cells were maintained in RPMI 1640 supplemented with 2 mM L-glutamine and 15% fetal bovine serum (FBS) at 37° C. in a humidified atmosphere of 5% CO2. Cell density was maintained between 200,000 cells/mL and 1,000,000 cells/mL. Cell growth and morphology were monitored by phase contrast microscopy and cell viability by trypan blue exclusion. To maintain cell density, cells were passaged by centrifuging at 500g for 3 minutes and resuspending the cells in fresh media. […]

The subject of series [2] is FXN protein in GM15851 cells. The series can be described thus: Immunoblot for FXN protein in GM15851 cells. The format is cell-based, human. Particulars: 24 hours, 1 μM, Agent 4 0.1, 0.5 or 1 μM. The protocol:
(§1) In FIG. 3A, “50” refers to GM15850 cells and in FIG. 3B, “51” refers to GM15851 cells. Cells were treated as in Example 4.
(§2) Total cell extracts from cell lines were used for immunoblot analysis. Antibodies to frataxin (abcam ab110328, 1:250 dilution) or alpha-Tubulin (Cell Signaling Technologies 2144, 1:1000 dilution) were used. Signal was detected by chemiluminescence with HRP-conjugated secondary antibodies (Bio-Rad 172-1011, 1:2000 for anti-mouse frataxin and GE NA934V, 1:2000 for anti-rabbit alpha-Tubulin).

Series [3] deals with FXN-GAA-Luc reporter cell line. Description: Luciferase reporter assay, FXN-GAA-Luc line (~310 GAA repeats). The format is cell-based. Conditions: 24 hours, Agent 4 at 1 or 2 μM, other treatments 2 μM. On the procedure: Treatments are 2 μM unless otherwise indicated. Results are mean±SEM (n=4).
The test system of series [4] is FXN protein in GM15850 cells. Description: Immunoblot for FXN protein in GM15850 cells. Conditions: 24 hours, 1 μM, Agent 4 0.1, 0.5 or 1 μM. It is filed as cell-based, human. On the procedure: as §1, §2
Series [5] deals with MYC transcription in MM cells. Particulars: MM cells bearing IgH rearrangement at the MYC locus; cited from earlier work.
A further series relates to cell cycle. Particulars: cited from earlier work.

As for `Cc1sc2c(c1C)C(c1ccc(Cl)cc1)=N[C@@H](CC(=O)NCCOCCOCCOCCOCCOCCOCCC(=O)NCCCN(C)CCCNC(=O)CCNC(=O)c1cc(NC(=O)c3cc(NC(=O)c4nc(NC(=O)c5cc(NC(=O)CCCNC(=O)c6nc(NC(=O)c7cc(NC(=O)c8cc(NC(=O)c9sccc9Cl)cn8C)cn7C)cn6C)cn5C)cn4C)cn3C)cn1C)c1nnc(C)n1-2` [Control Conjugate 2], the “increase in FXN mRNA levels” value in series [1] is recorded as “no increase”. Also, the “FXN protein (immunoblot)” value in series [2] was “increase in FXN protein”.

Turning to `Cc1sc2c(c1C)C(c1ccc(Cl)cc1)=N[C@@H](CC(=O)OC(C)(C)C)c1nnc(C)n1-2` [JQ1], the “increase in FXN mRNA levels” value in series [1] is on record as “no increase”. In series [3], the luciferase activity result is given as “Significant activation was not observed”. Also, the “FXN protein (immunoblot)” value in series [4] is reported as “Neither polyamide alone (3), nor JQ1, nor the unconjugated treatment induced increased production of FXN protein”. Further, the MYC transcription entry in series [5] was “inhibits MYC transcription in a dose- and time-dependent manner”. For the same molecule, in the series with cell cycle, the cell cycle effect entry is on record as “known to cause cell cycle arrest”.

Source of the values: patent publication US10517877B2, “Compounds and methods for modulating frataxin expression” (Wisconsin Alumni Research Foundation, priority 2016, dated 2019).
